Patent US20110010780A1, “KCNN3 AS DIAGNOSTIC AND THERAPEUTIC TARGET FOR NEURODEGENERATIVE DISEASES” (EVOTEC NeuroSciences GmbH, priority 2005, published 2011)
One block for each molecule: values may come before it.

What was measured:
[1] = test system: CHO wild type cells (CHO/−); experiment: cellular membrane potential assay in CHO wild type cells (control cell line); format: cell-based
KCNN3 [2] = molecular target: T1, KCNN3 (Homo sapiens, UniProt Q9UGI6, DUP76-80); experiment: Z′-value assessment of the cellular KCNN3 screening assay with fluoxetine; format: cell-based; conditions: CHO-KCNN3 cells, 100 μM fluoxetine, ionomycin 500 nM
T1 construct: expressed in transfected cells
Description: The difference of the fluorescence intensity before addition of ionomycin and after the 120 seconds incubation period was determined where the cells were incubated with fluoxetine. The influx of calcium mediated by ionomycin leads to an opening of the channels and a subsequent hyperpolarization of the resting membrane potential of the cells. […] The mean value of the difference of the fluorescence in presence of ionomycin and fluoxetine in the above experiment is 15912 rfu (standard deviation 3636 rfu) and the mean value of the fluorescence of cells in presence of ionomycin only is 124086 rfu (standard deviation 12615 rfu). The Z′-value is calculated to be 0.55. The Z′ in a second series of experiments was determined to be 0.59.
In order to optimize the KCNN3 assay for screening purposes the Z′-value was assessed (FIG. 16). After 24 hours of incubation the medium was removed from a 384-well plate where CHO-KCNN3 cells were grown. 20 μl dye solution in assay buffer was pipetted onto the cells and afterwards another 20 μl assay buffer only or 20 μl assay buffer plus 100 μM fluoxetine was added. After 30 minutes of incubation at 37 ° C. the plate was transferred to the automated pipetting device/fluorescence reader (FlexStation, Molecular Devices) and 10 μl ionomycin was added at a final concentration of 500 nM. Fluorescence was then measured for 120 sec every 10 sec. […]

SK-channels = conditions: all SK-channels, rather unspecifically; cited from earlier work
KCNN3 [3] = molecular target: T1, KCNN3; experiment: cellular KCNN3 screening assay (membrane potential dye DiBAC4(3), ionomycin activation) in CHO/KCNN3 cells; format: cell-based; conditions: incubated 30 minutes before ionomycin (1 μM final), fluorescence over 5 minutes

SMILES: C[C@H](CCC(=O)O)C[C@H](C)C[C@H](C)C(=O)/C=C(\O)[C@H](C)C[C@H](C)C/C=C/[C@@H](C)[C@@H](O)[C@@H](C)[C@@H](O)C[C@@H]1CC[C@@](C)([C@H]2CC[C@@](C)([C@@H](C)O)O2)O1 [ionomycin]
effect on fluorescence (membrane potential) in CHO wild type cells [1]: no effect

SMILES: CNCCC(Oc1ccc(C(F)(F)F)cc1)c1ccccc1 (stereo not shown) [fluoxetine]
mean value of the difference of the fluorescence before addition of ionomycin and after 120 seconds (KCNN3 [2]; 30 minutes, standard deviation 3636 rfu): 15912 rfu
block of the KCNN3 ion channel (KCNN3 [2]): the ion channel is blocked

SMILES: c1cc2cc(c1)C[n+]1ccc(c3ccccc31)NCc1ccc(cc1)CNc1cc[n+](c3ccccc13)C2 [UCL-1684]
block of SK-channels, potency (SK-channels): lesser potency compared to the toxins

SMILES: CC[N+](CC)(CC)CCOc1cccc(OCC[N+](CC)(CC)CC)c1OCC[N+](CC)(CC)CC [gallamine]
block of SK-channels, potency (SK-channels): lesser potency compared to the toxins

IC50 (KCNN3 [3]): 18 µM
SMILES: CN1CCN(CCCN2c3ccccc3Sc3ccc(C(F)(F)F)cc32)CC1 [trifluorperatine]

SMILES: COc1cc2c3cc1Oc1cc(ccc1O)C[C@@H]1c4c(cc(OC)c(O)c4Oc4ccc(cc4)C[C@@H]3N(C)CC2)CC[N+]1(C)C [tubocurarine]
block of SK-channels, potency (SK-channels): lesser potency compared to the toxins
